In PubChem BioAssay (NCI):
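A five-concentration, 48-hour dose response in 96-well plates underlies each endpoint, interpolated linearly between surrounding concentrations. TGI marks complete inhibition of growth.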

Tests used:
Experiment in all cases: inhibition of tumour cell growth, NCI panel, 48 h
[1] = system: EKVX NSCLC
[2] = system: UACC-257 melanoma
[3] = system: SK-MEL-28 melanoma
[4] = system: TK-10 renal
[5] = system: LOX IMVI melanoma
[6] = system: HOP-18 NSCLC
[7] = system: HCT-15 colon
[8] = system: M19-MEL melanoma
[9] = system: CCRF-CEM leukemia
[10] = system: OVCAR-8 ovarian
[11] = system: COLO 205 colon
[12] = system: A498 renal
[13] = system: RXF-631 renal
[14] = system: NCI-H23 lung
[15] = system: K-562 leukemia
[16] = system: OVCAR-4 ovarian
[17] = system: A549 NSCLC
[18] = system: SF-268 CNS
[19] = system: ACHN renal
[20] = system: RXF 393 renal
[21] = system: SF-295 CNS
[22] = system: CAKI-1 renal
[23] = system: SK-MEL-2 melanoma
[24] = system: LXFL 529 NSCLC
[25] = system: SNB-78 CNS
[26] = system: XF 498 CNS
[27] = system: UO-31 renal
[28] = system: KM20L2 colon
[29] = system: SNB-19 CNS
[30] = system: HOP-62 NSCLC
[31] = system: SN12C renal
[32] = system: SNB-75 CNS
[33] = system: NCI-H522 lung
[34] = system: OVCAR-3 ovarian
[35] = system: DMS 273 small cell lung
[36] = system: DMS 114 small cell lung
[37] = system: SK-OV-3 ovarian
[38] = system: UACC-62 melanoma
[39] = system: SK-MEL-5 melanoma
[40] = system: U251 CNS
[41] = system: HL-60(TB) leukemia
[42] = system: IGROV1 ovarian
[43] = system: HCC-2998 colon
[44] = system: 786-0 renal
[45] = system: MOLT-4 leukemia
[46] = system: NCI-H460 lung
[47] = system: KM12 colon
[48] = system: DLD-1 colon
[49] = system: HOP-92 NSCLC
[50] = system: SF-539 CNS
[51] = system: MALME-3M melanoma
[52] = system: NCI-H226 lung
[53] = system: OVCAR-5 ovarian
[54] = system: HT29 colon
[55] = system: M14 melanoma
[56] = system: SW-620 colon
[57] = system: HCT-116 colon
[58] = system: RPMI-8226 leukemia
[59] = system: SR leukemia

In the case of Brc1ccc(C=NC23CC4CC(CC(C4)C2)C3)cc1, the TGI [1] is reported as > 100 µM, the TGI [2] is reported as > 100 µM and the TGI [3] is reported as > 100 µM. The TGI [4] was > 100 µM, the TGI [5] was > 100 µM and the TGI [6] was > 100 µM. For the same compound, the TGI [7] was > 100 µM, the TGI [8] was > 100 µM and the TGI [9] was > 100 µM. For the same compound, the TGI [10] was > 100 µM, the TGI [11] was > 100 µM and the TGI [12] was > 100 µM. For the same compound, the TGI [13] was > 100 µM, the TGI [14] was > 100 µM and the TGI [15] was > 100 µM. For the same compound, the TGI [16] was > 100 µM, the TGI [17] was > 100 µM and the TGI [18] was > 100 µM. The TGI [19] was > 100 µM, the TGI [20] was > 100 µM and the TGI [21] was > 100 µM. For the same compound, the TGI [22] was > 100 µM, the TGI [23] was > 100 µM and the TGI [24] was > 100 µM. The TGI [25] was > 100 µM, the TGI [26] was > 100 µM and the TGI [27] was > 100 µM. The TGI [28] was > 100 µM, the TGI [29] was > 100 µM and the TGI [30] was > 100 µM. The TGI [31] was > 100 µM, the TGI [32] was > 100 µM and the TGI [33] was > 100 µM. For the same compound, the TGI [34] was > 100 µM, the TGI [35] was > 100 µM and the TGI [36] was > 100 µM. The TGI [37] was > 100 µM, the TGI [38] was > 100 µM and the TGI [39] was > 100 µM. For the same compound, the TGI [40] was > 100 µM, the TGI [41] was > 100 µM and the TGI [42] was > 100 µM. For the same compound, the TGI [43] was > 100 µM, the TGI [44] was > 100 µM and the TGI [45] was > 100 µM. For the same compound, the TGI [46] was > 100 µM, the TGI [47] was > 100 µM and the TGI [48] was > 100 µM. The TGI [49] was > 100 µM, the TGI [50] was > 100 µM and the TGI [51] was > 100 µM. For the same compound, the TGI [52] was > 100 µM, the TGI [53] was > 100 µM and the TGI [54] was > 100 µM. For the same compound, the TGI [55] was > 100 µM, the TGI [56] was > 100 µM and the TGI [57] was > 100 µM. For the same compound, the TGI [58] was > 100 µM.

CC12C3CC4C5CC(C(C53)[C@@H]1NCc1ccccc1)C42 (stereo partly specified) was tested, and the TGI [1] was > 100 µM, the TGI [2] was > 100 µM and the TGI [3] was > 100 µM. For the same compound, the TGI [4] was > 100 µM, the TGI [5] was > 100 µM and the TGI [6] was > 100 µM. For the same compound, the TGI [7] was > 100 µM, the TGI [9] was > 100 µM and the TGI [10] was > 100 µM. For the same compound, the TGI [59] was > 100 µM, the TGI [11] was 75.3 µM and the TGI [12] was > 100 µM. For the same compound, the TGI [13] was > 100 µM, the TGI [14] was > 100 µM and the TGI [15] was > 100 µM. The TGI [16] was > 100 µM, the TGI [17] was > 100 µM and the TGI [18] was > 100 µM. For the same compound, the TGI [19] was > 100 µM, the TGI [20] was > 100 µM and the TGI [21] was > 100 µM. For the same compound, the TGI [22] was > 100 µM, the TGI [23] was > 100 µM and the TGI [24] was > 100 µM. The TGI [25] was > 100 µM, the TGI [26] was > 100 µM and the TGI [27] was > 100 µM. For the same compound, the TGI [28] was > 100 µM, the TGI [29] was > 100 µM and the TGI [30] was > 100 µM. The TGI [31] was > 100 µM, the TGI [32] was > 100 µM and the TGI [33] was > 100 µM. For the same compound, the TGI [34] was > 100 µM, the TGI [35] was > 100 µM and the TGI [36] was > 100 µM. For the same compound, the TGI [37] was > 100 µM, the TGI [38] was > 100 µM and the TGI [39] was > 100 µM. The TGI [40] was > 100 µM, the TGI [41] was > 100 µM and the TGI [42] was > 100 µM. The TGI [43] was 41.8 µM, the TGI [44] was > 100 µM and the TGI [45] was > 100 µM. For the same compound, the TGI [46] was > 100 µM, the TGI [47] was > 100 µM and the TGI [48] was > 100 µM. The TGI [49] was > 100 µM, the TGI [50] was > 100 µM and the TGI [51] was > 100 µM. The TGI [52] was > 100 µM, the TGI [53] was > 100 µM and the TGI [54] was > 100 µM. For the same compound, the TGI [55] was > 100 µM, the TGI [56] was > 100 µM and the TGI [57] was > 100 µM. The TGI [58] was > 100 µM.
